# In ChEMBL document CHEMBL1130530, “3D QSAR analysis of taxoids from Taxus cuspidata var. nana by comparative molecular field approach” (Bioorg Med Chem Lett, 1997):
# Tested on: P388
# Experiment: Actual inhibitory activity in P388 leukemia cells by CoMFA analysis, expressed as log 1/IC50.
# Assay type: functional, cell-based
# Conditions: Mus musculus, P388, read-out: Log 1/IC50 (converted)
row,IC50 [nM],Compound
1,100,CC(=O)O[C@@]12CO[C@@H]1C[C@H](O)[C@]1(C)[C@@H]2[C@H](OC(=O)c2ccccc2)[C@]2(O)CC(=O)C(C)=C([C@@H](O)[C@@H]1O)C2(C)C
2,43.7,C=C1[C@H]2C[C@@H]3C[C@H](OC(C)=O)C(C)=C([C@@H](OC(C)=O)[C@H](OC(C)=O)[C@]2(C)[C@@H](OC(C)=O)C[C@@H]1O)C3(C)C
3,63.2,C=C1[C@H]2C[C@@H]3C[C@H](O)C(C)=C([C@@H](OC(C)=O)[C@H](OC(C)=O)[C@]2(C)[C@@H](OC(C)=O)C[C@@H]1O)C3(C)C
4,12.3,C=C1[C@H]2C[C@@H]3CC(=O)C(C)=C([C@@H](OC(C)=O)[C@H](OC(C)=O)[C@]2(C)[C@@H](OC(C)=O)C[C@@H]1O)C3(C)C
5,12.3,CC(=O)OC[C@H]1[C@H]2[C@H](O)[C@@H]3C[C@H](OC(C)=O)C(C)=C([C@@H](OC(C)=O)[C@H](OC(C)=O)[C@]2(C)[C@@H](OC(C)=O)C[C@@H]1OC(C)=O)C3(C)C
6,18.2,CCCCCCC(=O)N[C@@H](c1ccccc1)[C@@H](O)C(=O)O[C@H]1C[C@@]2(O)[C@@H](OC(=O)c3ccccc3)[C@@H]3[C@]4(OC(C)=O)CO[C@@H]4C[C@H](O)[C@@]3(C)C(=O)[C@H](OC(C)=O)C(=C1C)C2(C)C
7,25.1,C=C1[C@H]2C[C@]3(O)C[C@H](O)C(C)=C([C@@H](OC(C)=O)[C@H](OC(C)=O)[C@]2(C)[C@@H](OC(=O)c2ccccc2)C[C@@H]1O)C3(C)C
8,10,C=C1[C@@H](OC(=O)/C=C/c2ccccc2)C[C@H](OC(C)=O)[C@@]2(C)[C@@H](OC(C)=O)[C@H](OC(C)=O)[C@]3(O)[C@@]4(C)CO[C@]3(C)C(=O)C[C@H]4[C@@H](OC(C)=O)[C@H]12 [TAXAGIFINE]
9,66.1,CC(=O)O[C@@]12CO[C@@H]1C[C@H](O)[C@@]1(C)C(=O)[C@H](O)C3=C(C)[C@@H](OC(=O)[C@H](O)[C@@H](NC(=O)C4CCC4)c4ccccc4)C[C@@](O)([C@@H](OC(=O)c4ccccc4)[C@H]21)C3(C)C
10,89.2,CCCCCC(=O)N[C@@H](c1ccccc1)[C@@H](O)C(=O)O[C@H]1C[C@@]2(O)[C@@H](OC(=O)c3ccccc3)[C@@H]3[C@]4(OC(C)=O)CO[C@@H]4C[C@H](O)[C@@]3(C)C(=O)[C@@H](O)C(=C1C)C2(C)C
11,12.6,C=C1[C@@H](O)C[C@H](OC(C)=O)[C@@]2(C)[C@@H](OC(C)=O)[C@H](OC(C)=O)C3=C(C)[C@@H](OC(C)=O)C[C@@H]([C@@H](OC(C)=O)[C@H]12)C3(C)C [DECINNAMOYLTAXININE J]

# Second part, the compound before the results:
row,Compound,IC50 [nM]
1,CC(=O)O[C@H]1C[C@@]2(O)[C@@H](OC(=O)c3ccccc3)[C@@H]3[C@]4(OC(C)=O)CO[C@@H]4C[C@H](O)[C@@]3(C)[C@@H](O)[C@H](OC(C)=O)C(=C1C)C2(C)C,52.5
2,C=C1[C@@H](OC(=O)/C=C/c2ccccc2)C[C@H](OC(C)=O)[C@@]2(C)[C@@H](OC(C)=O)[C@H](OC(C)=O)C3=C(C)C(=O)C[C@@H]([C@@H](OC(C)=O)[C@H]12)C3(C)C,10
3,CC(=O)O[C@H]1C[C@@]2(O)[C@@H](OC(C)=O)[C@@H]3[C@@]4(CO4)[C@@H](OC(C)=O)C[C@H](OC(C)=O)[C@@]3(C)[C@@H](OC(C)=O)[C@H](OC(C)=O)C(=C1C)C2(C)C,10
4,CC(=O)O[C@@]12CO[C@@H]1C[C@H](O)[C@@]1(C)C(=O)[C@H](O)C3=C(C)[C@@H](OC(=O)[C@H](O)[C@@H](NC(=O)c4ccccc4)c4ccccc4)C[C@@](O)([C@@H](OC(=O)c4ccccc4)[C@H]21)C3(C)C,42.7
5,C=C1[C@@H](O)C[C@H](OC(C)=O)[C@@]2(C)[C@@H](OC(C)=O)[C@H](OC(C)=O)C3=C(C)C(=O)C[C@@H]([C@@H](OC(C)=O)[C@H]12)C3(C)C,66.1
6,CC(=O)O[C@H]1C[C@@]2(O)[C@@H](OC(=O)c3ccccc3)[C@@H]3[C@]4(OC(C)=O)CO[C@@H]4C[C@H](O)[C@@]3(C)[C@@H](O)[C@H](O)C(=C1C)C2(C)C,28.9
7,C=C1[C@@H](O)C[C@H](OC(C)=O)[C@@]2(COC(=O)c3ccccc3)[C@@H](OC(C)=O)[C@H](OC(C)=O)[C@]3(O)[C@@]4(C)CO[C@]3(C)C(=O)C[C@H]4[C@@H](OC(C)=O)[C@H]12 [TAXININ M],26.9
8,CC(=O)O[C@@H]1C2=C(C)C(=O)C[C@@](O)([C@@H](OC(=O)c3ccccc3)[C@@H]3[C@]4(OC(C)=O)CO[C@@H]4C[C@H](O)[C@@]3(C)[C@H]1O)C2(C)C,47.9
9,CC(=O)O[C@H]1C(=O)[C@@]2(C)[C@H]([C@H](OC(=O)c3ccccc3)[C@]3(O)C[C@H](OC(=O)[C@H](O)[C@@H](NC(=O)c4ccccc4)c4ccccc4)C(C)=C1C3(C)C)[C@]1(OC(C)=O)CO[C@@H]1C[C@@H]2O [PACLITAXEL],21.9
10,CC(=O)O[C@H]1[C@@H]2[C@H](CO)[C@@H](OC(C)=O)C[C@H](OC(C)=O)[C@@]2(C)[C@@H](OC(C)=O)[C@H](OC(C)=O)C2=C(C)[C@@H](OC(C)=O)C[C@@H]1C2(C)C,14.1
11,C=C1[C@@H](OC(=O)/C=C/c2ccccc2)CC[C@@]2(C)[C@@H](OC(C)=O)[C@H](OC(C)=O)C3=C(C)C(=O)C[C@@H]([C@@H](OC(C)=O)[C@H]12)C3(C)C,10
12,C=C1[C@@H](OC(C)=O)CC[C@@]2(C)[C@@H](OC(C)=O)[C@H](OC(C)=O)C3=C(C)[C@@H](OC(C)=O)C[C@@H]([C@@H](OC(C)=O)[C@H]12)C3(C)C,16.6
13,CCCCCC(=O)N[C@@H](c1ccccc1)[C@@H](O)C(=O)O[C@H]1C[C@@]2(O)[C@@H](OC(=O)c3ccccc3)[C@@H]3[C@]4(OC(C)=O)CO[C@@H]4C[C@H](O)[C@@]3(C)C(=O)[C@H](OC(C)=O)C(=C1C)C2(C)C [TAXOL C],81.4
14,CC(=O)O[C@H]1C[C@H]2[C@@H](OC(C)=O)CC3C[C@](C)(C(=O)[C@H](O)C(=C1C)C2(C)C)[C@@H](O)C[C@@H]3OC(=O)/C=C/c1ccccc1,47.9
15,CC(=O)O[C@H]1C(=O)[C@@]2(C)[C@H]([C@H](OC(=O)c3ccccc3)[C@]3(O)C[C@H](O)C(C)=C1C3(C)C)[C@]1(OC(C)=O)CO[C@@H]1C[C@@H]2O [BACCATIN III],63.2
16,CCCCCC(=O)N[C@@H](c1ccccc1)[C@@H](O)C(=O)O[C@H]1C[C@@]2(O)[C@@H](OC(=O)c3ccccc3)[C@@H]3[C@]4(OC(C)=O)CO[C@@H]4C[C@H](O)[C@@]3(C)C(=O)[C@H](O)C(=C1C)C2(C)C [10-DEACETYLTAXAYUNNANINE A],40.8
